Laboratory results: US6423740B1, “Chalcones having antiproliferative activity” (Indena S.p.A., priority 1997, dated 2002)

Assays:
[1] = tested on: type II estrogen receptors; experiment: Binding to type II estrogen receptors, displacement of 3H-estradiol in tumor cells; conditions: read-out: IC50, concentration causing 50% displacement of the estradiol labelled by its own receptor
Protocol: The binding to type II estrogen receptors was evaluated in ovarian tumor cells and tumor cells of other target organs. The cells were grown in a single layer according to the known techniques reported in the literature. To make the test reproducibility, the cells were trypsin treated, every week and placed on plates at a density of 8×10^4 cells/cm^2 and incubated at 37° C. in air containing 5% CO2.
(§1) The various compounds under test, dissolved in ethyl alcohol, were added at serial dilutions and the treated cells and control cells were incubated with ^3H-estradiol or in the presence of diethylstilbestrol according to the methods described by literature. The antiproliferation activity were verified in the same way by adding the compounds, dissolved in DMSO, to the medium and performing a cell count after 72 hours.

MDA-MB231 = experiment: Antiproliferation activity in vitro, cell count after 72 hours, sensitive breast tumoral line; format: cell-based; conditions: MDA-MB-231, MDA-MB231 sensitive human breast tumoral line, read-out: IC50 (MDA-MB231), concentration causing 50% inhibition of the cell proliferation
Protocol: as §1

MCF7 ADRr = experiment: Antiproliferation activity in vitro, cell count after 72 hours, adriamycin-resistant breast tumoral line; format: cell-based; conditions: MCF7 ADRr adriamycin-resistant human breast tumoral line, read-out: IC50 (MCF7 ADRr), concentration causing 50% inhibition of the cell proliferation
Protocol: as §1

melting point | IC50 [1] | IC50 (MDA-MB231) | IC50 (MCF7 ADRr) | Compound
108 to 109 °C |  |  |  | CC(C)=CCOc1ccc(C(=O)C=Cc2ccc(C)cc2)c(O)c1 [Compound XXV, 1-(2-Hydroxy-4-(3-methylbut-2-enyloxy)-phenyl)-3-(4-methylphenyl)-propen-1-one]
 | 4.3 µM | 4.9 µM | 5.1 µM | C#CCOc1ccc(C(=O)C=Cc2cccs2)c(O)c1 [Compound XIII, 1-(2-Hydroxy-4-(prop-2-ynyloxy)-phenyl)-3-(2-thienyl)-propen-1-one]
177 to 179 °C |  |  |  | C#CCOc1ccc(C(=O)C=Cc2c(OC)cc(OC)cc2OC)c(O)c1 [Compound XXIII, 1-(2-Hydroxy-4-(prop-2-ynyloxy)-phenyl)-3-(2,4,6-trimethoxyphenyl)-propen-1-one]
 | 2.7 µM | 5.3 µM | 3.9 µM | C=C(C)COc1ccc(C(=O)C=Cc2cccs2)c(O)c1 [Compound XII, 1-(2-Hydroxy-4-(2-methylallyloxy)-phenyl)-3-(2-thienyl)-propen-1-one]
106 to 107 °C | 5.5 µM | 4.3 µM | 5.6 µM | C=C(C)COc1ccc(C(=O)C=Cc2ccc(OC)cc2OC)c(O)c1 [Compound XVII, 1-(2-Hydroxy-4-(2-methylallyloxy)-phenyl)-3-(2,4-dimethoxyphenyl)-propen-1-one]
130 to 131 °C |  |  |  | CSc1ccc(C=CC(=O)c2ccc(OCC=C(C)C)cc2O)cc1 [Compound XXVI, 1-(2-Hydroxy-4-(3-methylbut-2-enyloxy)-phenyl)-3-(4-methylthiophenyl)-propen-1-one]
 | 5.2 µM | 7.1 µM | 9.4 µM | C#CCOc1ccc(C(=O)C=Cc2c[nH]c3ccccc23)c(O)c1 [Compound VII, 1-[2-hydroxy-4-(prop-2-ynyloxy)-phenyl]-3-(indole-3-yl)propen-1-one]
 | 3.2 µM | 5.7 µM | 6.3 µM | CC(C)=CCOc1ccc(C(=O)C=Cc2ccco2)c(O)c1 [Compound XIV, 1-(2-Hydroxy-4-(3-methylbut-2-enyloxy)-phenyl)-3-(2-furyl)-propen-1-one]
 | 1.4 µM | 4.1 µM | 3.6 µM | CC(C)=CCOc1ccc(C(=O)C=Cc2cccs2)c(O)c1 [Compound XI, 1-(2-Hydroxy-4-(3-methylbut-2-enyloxy)-phenyl)-3-(2-thienyl)-propen-1-one]
115 to 117 °C | 2.8 µM | 3.7 µM | 3.7 µM | C#CCOc1ccc(C(=O)C=Cc2cccnc2)c(O)c1 [Compound X, 1-[2-hydroxy-4-(prop-2-ynyloxy)-phenyl]-3-(pyridine-3-yl)propen-1-one]
 | 4.4 µM | 8.9 µM | 8.4 µM | C#CCOc1ccc(C(=O)C=Cc2ccccc2)c(O)c1 [Compound XVI, 1-(2-Hydroxy-4-(prop-2-ynyloxy)-phenyl)-3-(phenyl)-propen-1-one]
85 to 87 °C | 1.7 µM | 7.5 µM | 9.4 µM | C=C(C)COc1ccc(C(=O)C=Cc2ccc(N(C)C)cc2)c(O)c1 [Compound IV, 1-[2-hydroxy-4-(2-methylallyloxy)-phenyl]-3-(4-dimethylaminophenyl)-propen-1-one]
97 to 100 °C | 3.1 µM | 5 µM | 8.9 µM | C=C(C)COc1ccc(C(=O)C=Cc2cccc(OC)c2)c(O)c1 [Compound IX, 1-[2-hydroxy-4-(2-methylallyloxy)-phenyl]-3-(3-methoxyphenyl)-propen-1-one]
101 to 102 °C |  |  |  | CC(C)=CCOc1ccc(C(=O)C=Cc2c(Cl)cccc2Cl)c(O)c1 [Compound XXI, 1-(2-Hydroxy-4-(3-methylbut-2-enyloxy)-phenyl)-3-(2,6-dichlorophenyl)-propen-1-one]
188 to 190 °C |  |  |  | C#CCOc1ccc(C(=O)C=Cc2ccc(C#N)cc2)c(O)c1 [Compound XXIV, 1-(2-Hydroxy-4-(prop-2-ynyloxy)-phenyl)-3-(4-cyanophenyl)-propen-1-one]

Continued, molecule first:

Compound | melting point | IC50 [1] | IC50 (MDA-MB231) | IC50 (MCF7 ADRr)
C=C(C)COc1ccc(C(=O)C=Cc2ccc(Br)cc2)c(O)c1 [Compound XVIII, 1-(2-Hydroxy-4-(2-methylallyloxy)-phenyl)-3-(4-bromophenyl)-propen-1-one] | 121 to 122 °C |  |  | 
CC(C)=CCOc1ccc(C(=O)C=Cc2ccc(C(F)(F)F)cc2)c(O)c1 [Compound XXII, 1-(2-Hydroxy-4-(3-methylbut-2-enyloxy)-phenyl)-3-(4-trifluoromethylphenyl)-propen-1-one] | 122 to 123 °C |  |  | 
CC(C)=CCOc1ccc(C(=O)C=Cc2c[nH]c3ccccc23)c(O)c1 [Compound V, 1-[2-hydroxy-4-(3-methylbut-2-enyloxy)-phenyl]-3-(indole-3-yl)-propen-1-one] |  | 2.8 µM | 11 µM | 6.8 µM
CC(C)=CCOc1ccc(C(=O)C=Cc2ccc(F)cc2)c(O)c1 [Compound XIX, 1-(2-Hydroxy-4-(3-methylbut-2-enyloxy)-phenyl)-3-(4-fluorophenyl)-propen-1-one] | 96 to 97 °C |  |  | 
CC(C)=CCOc1ccc(C(=O)C=Cc2cccnc2)c(O)c1 [Compound II, 1-[2-Hydroxy-4-(3-methylbut-2-enyloxy)-phenyl]-3(pyridine-3-yl)-propen-1-one] | 177 to 179 °C | 3.3 µM | 3.2 µM | 2.2 µM
CC(C)=CCOc1ccc(C(=O)C=Cc2ccncc2)c(O)c1 [Compound I, 1-[2-Hydroxy-4-(3-methylbut-2-enyloxy)-phenyl]-3(pyridine-4-yl)-propen-1-one] | 99 to 100 °C | 1.1 µM | 3.2 µM | 2.8 µM
CC(C)=CCOc1ccc(C(=O)C=Cc2cccc([N+](=O)[O-])c2)c(O)c1 [Compound XX, 1-(2-Hydroxy-4-(3-methylbut-2-enyloxy)-phenyl)-3-(3-nitrophenyl)-propen-1-one] | 125 to 126 °C |  |  | 
CC(=O)Nc1ccc(C=CC(=O)c2ccc(OCC=C(C)C)cc2O)cc1 [Compound III, 1-[2-hydroxy-4-(3-methylbut-2-enyloxy)-phenyl]-3-(4-acetamidophenyl)-propen-1-one] |  | 4.2 µM | 8.2 µM | 7 µM
C=C(C)COc1ccc(C(=O)C=Cc2cccnc2)c(O)c1 [Compound VIII, 1-[2-Hydroxy-4-(2-methylallyloxy)-phenyl]-3-(pyridine-3-yl)-propen-1-one] | 164 to 166 °C | 4 µM | 5.4 µM | 6 µM
C=C(C)COc1ccc(C(=O)C=Cc2ccccc2)c(O)c1 [Compound XV, 1-(2-Hydroxy-4-(2-methylallyloxy)-phenyl)-3-(phenyl)-propen-1-one] |  | 2.9 µM | 10.7 µM | 7.1 µM
C=C(C)COc1ccc(C(=O)C=Cc2c[nH]c3ccccc23)c(O)c1 [Compound VI, 1-[2-Hydroxy-4-(2-methylallyloxy)-phenyl]-3-(indole-3-yl)-propen-1-one] |  | 3.4 µM | 9.6 µM | 8.8 µM
